In the supplement of paper PMC10307832:

Tests used:
Test in all cases: relative viability (nuclei count vs DMSO), 5 days (fraction); higher = more cells survive
[1] = compound: C1=CC(=CC=C1C2=CC(=C(S2)NC(=O)N)C(=O)N)F [TPCA-1] + Nc1ncn([C@H]2C[C@H](O)[C@@H](CO)O2)c(=O)n1 [Decitabine] (partner 2 µM)
Procedure, shortened: (§1)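 Medians of duplicate plates are given as relative viability. That measure is the nuclei count in treated wells divided by the count in vehicle wells. Counts were taken on 4× images of lung cancer cell lines in 1536-well plates, 5 days after pin-tool dosing the day after seeding with one drug alone or a fixed anchor-drug dose plus five library-drug doses (not always all listed) in √10 steps.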

[2] = compound: C1/C(=C\C2=CC=CS2)/C(=O)/C(=C/C3=CC=CS3)/C1 + CCNC(=O)c1noc(-c2cc(C(C)C)c(O)cc2O)c1-c1ccc(CN2CCOCC2)cc1 [Luminespib] (partner 0.01 µM)
Procedure, shortened: as §1

[3] = compound: C1=CC(=CC=C1C2=CC(=C(S2)NC(=O)N)C(=O)N)F [TPCA-1] + O=C(CCCCCCC(=O)Nc1ccccc1)NO [Vorinostat] (partner 1 µM)
Procedure, shortened: as §1

[4] = compound: C[C@]12O[C@H](C[C@]1(O)CO)n1c3ccccc3c3c4c(c5c6ccccc6n2c5c31)CNC4=O [Lestaurtinib] + CC(C)C[C@H](NC(=O)[C@H](Cc1ccccc1)NC(=O)c1cnccn1)B(O)O [Bortezomib] (partner 0.002 µM)
Procedure, shortened: as §1

Row | Cell Line | relative viability ([1]; first compound 0.04 µM) | relative viability ([1]; first compound 0.1265 µM) | relative viability ([1]; first compound 0.4 µM) | relative viability ([1]; first compound 1.265 µM) | relative viability ([1]; first compound 4 µM) | relative viability ([2]; first compound 0.2 µM) | relative viability ([2]; first compound 0.6325 µM) | relative viability ([2]; first compound 2 µM) | relative viability ([2]; first compound 6.325 µM) | relative viability ([2]; first compound 20 µM) | relative viability ([3]; first compound 0.04 µM) | relative viability ([3]; first compound 0.1265 µM) | relative viability ([3]; first compound 0.4 µM) | relative viability ([3]; first compound 1.265 µM) | relative viability ([3]; first compound 4 µM) | relative viability ([4]; first compound 0.005 µM) | relative viability ([4]; first compound 0.01581 µM) | relative viability ([4]; first compound 0.05 µM) | relative viability ([4]; first compound 0.1581 µM) | relative viability ([4]; first compound 0.5 µM)
1 | 201T | 0.901 | 0.868 | 0.889 | 0.869 | 0.941 | 1.14 | 1.05 | 1.04 | 1.03 | 1.01 | 1.02 | 0.951 | 0.99 | 0.937 | 0.886 | 1.17 | 1.12 | 1.17 | 1.24 | 0.937
2 | A549 | 0.219 | 0.423 | 0.284 | 0.182 | 0.102 | – | – | – | – | – | – | – | – | – | – | – | – | – | – | –
3 | A-427 | 0.62 | 0.535 | 0.591 | 0.564 | 0.504 | 1.01 | 0.905 | 0.939 | 0.876 | 0.977 | 0.891 | 0.806 | 0.927 | 0.912 | 0.227 | 0.98 | 1.05 | 0.835 | 0.446 | 0.212
4 | ABC-1 | 1.49 | 1.07 | 1.16 | 1.09 | 1.27 | 0.33 | 0.853 | 1.04 | 0.428 | 0.521 | 1.4 | 1.14 | 1.38 | 1.29 | 0.926 | 0.352 | 0.332 | 0.292 | 0.308 | 0.2
5 | BEN | 0.875 | 0.625 | 0.813 | 0.838 | 0.387 | 0.477 | 0.403 | 0.476 | 0.344 | 0.253 | 0.56 | 0.543 | 0.624 | 0.634 | 0.441 | 0.74 | 0.998 | 0.637 | 0.74 | 0.328
6 | CAL-12T | – | – | – | – | – | 0.374 | 0.316 | 0.404 | 0.444 | 0.364 | 0.763 | 0.523 | 0.762 | 0.733 | 0.568 | 0.806 | 1.27 | 0.888 | 0.794 | 0.618
7 | COR-L23 | 0.498 | 0.394 | 0.466 | 0.385 | 0.403 | 0.583 | 0.692 | 0.577 | 0.721 | 0.544 | 0.502 | 0.424 | 0.484 | 0.292 | 0.153 | 1.21 | 1.07 | – | 0.697 | 0.464
8 | COR-L 105 | 0.711 | 0.622 | 0.735 | 0.612 | 0.537 | 0.97 | 0.502 | 0.808 | – | 0.586 | 1.02 | 0.709 | 0.766 | 0.628 | 0.391 | 0.893 | 0.665 | 0.706 | 0.521 | 0.253
9 | Calu-6 | – | – | – | – | – | – | – | – | – | – | – | – | – | – | – | 1.07 | 0.875 | 0.744 | 0.562 | 0.184
10 | ChaGo-K-1 | 0.49 | 0.453 | 0.565 | 0.499 | 0.321 | 0.62 | 0.652 | 0.45 | 0.295 | 0.22 | 0.781 | 0.694 | 0.796 | 0.665 | 0.295 | 0.944 | 1.51 | 0.931 | 0.718 | 0.5
11 | EBC-1 | – | – | – | – | – | – | – | – | – | – | – | – | – | – | – | 0.495 | 0.621 | 0.504 | 0.43 | 0.227
12 | EKVX | 0.366 | – | 0.383 | 0.316 | 0.345 | 0.914 | 0.83 | 0.904 | 0.678 | 0.842 | 0.724 | 0.622 | 0.766 | 0.76 | 0.654 | 1.1 | 1.26 | 0.999 | 1.19 | 0.679
13 | EMC-BAC-2 | 0.997 | 0.972 | 0.939 | 0.852 | 0.898 | 1.23 | 1.23 | 1.19 | 1.09 | 1.12 | 0.461 | 0.447 | 0.615 | 0.413 | 0.203 | 1.1 | 1.11 | 0.942 | 0.678 | 0.279
14 | EPLC-272H | 0.458 | 0.318 | 0.41 | 0.372 | 0.382 | 0.53 | 0.326 | 0.267 | 0.513 | 0.561 | 0.53 | 0.403 | 0.523 | 0.256 | 0.258 | 1.02 | 1.15 | 0.603 | 0.828 | 0.486
15 | H3255 | 0.71 | 0.553 | 0.676 | 0.513 | 0.475 | 1.21 | 0.855 | 0.954 | 0.871 | 0.907 | 0.82 | 0.461 | 0.819 | 0.694 | 0.512 | 0.773 | 0.982 | 0.648 | 0.903 | 0.351
